According to patent US20230117034A1, “PYRAZOLOTRIAZINES” (Bayer Aktiengesellschaft, priority 2019, published 2023):
Blank lines part the entries; values can stand above or below the compound they belong to.

How the values were obtained:
[1] = biological target: T1, CYCLIN K (nuclear staining in CAL-120 cells) (Homo sapiens, UniProt O75909); test: CYCLIN K nuclear protein level: immunofluorescence high content analysis (CAL-120); assay type: cell-based; conditions: 24 h, 50% reduction of nuclear CCNK staining intensity, median, read-out: CYCLIN K degradation IF, DC50-[mol/l] (median)
T1 construct: endogenous in cells; host or cells: CAL-120 human breast cancer cells (DSMZ ACC 459)
Method in brief: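 CAL-120 breast cancer cells treated in dose-response for 24 h at 37 °C, PFA-fixed and immunostained for cyclin K with Hoechst counterstain. Confocal imaging quantified nuclear intensity; DC50 is the concentration giving 50% reduction of nuclear CCNK staining, normalized to DMSO and control.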

[2] = system: MDA-MB-231, human breast cancer cells; test: Proliferation assay MDA-MB-231 (crystal violet, 4 days); assay type: cell-based; conditions: Homo sapiens, MDA-MB-231, 96 h, MDA-MB-231 cells, median, read-out: Prolif-MDA MB-231, IC50-[mol/l] (median)
Method in brief: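 Plated 4,000 cells/well, 10% FCS; 24 h later treated 0.01-10 µmol/L cpd (DMSO 0.1%), 4 d. Fix glutaraldehyde, stain 0.1% crystal violet pH 3.0, elute acetic acid, A595. Normalized to t0 plate/untreated; 4-param IC50.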

[3] = biological target: T2, CDK2/CycE (Homo sapiens, UniProt P24941); test: CDK2/CycE kinase assay (TR-FRET, 2 mM ATP); assay type: biochemical; conditions: 2 mM ATP (high ATP); median; read-out: CDK2/CyclinE, 2 mM ATP (high ATP), IC50 (median)
T2 construct: purchased ProQinase GmbH (Freiburg, Germany); host or cells: insect cells (Sf9)
Method in brief: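 GST-tagged human CDK2 and CycE from Sf9 cells, about 10 ng/ml, pre-incubated 15 min at 22 °C with compound in Tris/HCl pH 8.0 buffer. Reaction with 2 mM ATP and 0.75 µM biotinylated peptide for 25 min at 22 °C. Phospho-RB antibody TR-FRET (665/620 nm ratio) read after 1 h; data normalised to no-inhibitor and no-enzyme controls.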

T1 sequence (O75909 whole entry): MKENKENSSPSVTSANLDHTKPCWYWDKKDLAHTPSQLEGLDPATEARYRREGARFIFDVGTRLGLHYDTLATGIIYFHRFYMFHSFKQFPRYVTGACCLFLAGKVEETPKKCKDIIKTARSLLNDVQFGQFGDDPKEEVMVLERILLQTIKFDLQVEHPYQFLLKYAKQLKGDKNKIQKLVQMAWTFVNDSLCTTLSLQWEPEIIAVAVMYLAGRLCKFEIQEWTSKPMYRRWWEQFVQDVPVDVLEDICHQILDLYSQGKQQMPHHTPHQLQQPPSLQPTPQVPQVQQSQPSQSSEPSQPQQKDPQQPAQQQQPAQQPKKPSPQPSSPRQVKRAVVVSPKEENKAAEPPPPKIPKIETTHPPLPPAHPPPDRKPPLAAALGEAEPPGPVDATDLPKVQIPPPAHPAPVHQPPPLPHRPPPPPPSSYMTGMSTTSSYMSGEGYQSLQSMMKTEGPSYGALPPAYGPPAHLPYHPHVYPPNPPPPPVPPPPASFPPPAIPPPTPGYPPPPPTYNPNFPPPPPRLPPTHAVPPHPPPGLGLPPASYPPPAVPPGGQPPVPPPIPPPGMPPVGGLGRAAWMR
T1 sequence (Q9NYV4 whole entry partner): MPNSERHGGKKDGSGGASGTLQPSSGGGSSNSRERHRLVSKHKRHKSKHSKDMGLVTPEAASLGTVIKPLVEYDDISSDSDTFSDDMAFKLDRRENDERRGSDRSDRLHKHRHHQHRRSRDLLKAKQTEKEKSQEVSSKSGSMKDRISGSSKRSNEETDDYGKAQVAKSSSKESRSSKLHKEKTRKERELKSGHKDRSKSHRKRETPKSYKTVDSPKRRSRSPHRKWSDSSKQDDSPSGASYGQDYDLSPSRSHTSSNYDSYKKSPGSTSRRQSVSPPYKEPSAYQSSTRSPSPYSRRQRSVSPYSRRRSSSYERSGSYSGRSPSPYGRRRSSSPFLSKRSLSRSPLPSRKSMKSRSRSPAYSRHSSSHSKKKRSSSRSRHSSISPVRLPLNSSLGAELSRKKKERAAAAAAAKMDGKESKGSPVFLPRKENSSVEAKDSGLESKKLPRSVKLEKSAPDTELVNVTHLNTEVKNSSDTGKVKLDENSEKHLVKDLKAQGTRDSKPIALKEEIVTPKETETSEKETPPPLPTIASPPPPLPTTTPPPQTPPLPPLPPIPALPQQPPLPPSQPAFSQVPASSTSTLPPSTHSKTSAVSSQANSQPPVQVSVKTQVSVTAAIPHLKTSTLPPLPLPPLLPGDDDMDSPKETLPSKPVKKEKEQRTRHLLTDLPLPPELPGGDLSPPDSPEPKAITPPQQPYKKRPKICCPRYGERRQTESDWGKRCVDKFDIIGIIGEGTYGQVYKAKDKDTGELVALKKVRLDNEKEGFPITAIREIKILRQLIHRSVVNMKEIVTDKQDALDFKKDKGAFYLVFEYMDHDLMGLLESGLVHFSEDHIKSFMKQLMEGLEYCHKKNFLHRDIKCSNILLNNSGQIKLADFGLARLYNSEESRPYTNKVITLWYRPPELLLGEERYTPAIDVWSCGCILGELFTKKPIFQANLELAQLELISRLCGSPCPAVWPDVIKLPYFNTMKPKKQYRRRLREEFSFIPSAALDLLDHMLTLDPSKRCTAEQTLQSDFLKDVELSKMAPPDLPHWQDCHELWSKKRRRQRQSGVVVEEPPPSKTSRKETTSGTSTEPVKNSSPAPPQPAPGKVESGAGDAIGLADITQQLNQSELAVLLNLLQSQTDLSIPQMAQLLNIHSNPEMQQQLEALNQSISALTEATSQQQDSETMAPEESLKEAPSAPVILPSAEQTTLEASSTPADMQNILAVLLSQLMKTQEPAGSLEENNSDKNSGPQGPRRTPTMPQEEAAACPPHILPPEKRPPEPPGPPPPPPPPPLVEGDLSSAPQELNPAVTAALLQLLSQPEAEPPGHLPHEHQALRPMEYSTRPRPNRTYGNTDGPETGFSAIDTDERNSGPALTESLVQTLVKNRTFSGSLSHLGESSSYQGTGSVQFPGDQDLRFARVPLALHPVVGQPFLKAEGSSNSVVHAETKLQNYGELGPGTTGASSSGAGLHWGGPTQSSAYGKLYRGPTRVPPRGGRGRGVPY

SMILES: FC(F)(F)Cc1cnn2c(NCc3nc4ccccc4[nH]3)nc(N3CCOCC3)nc12.O=CO [Example 265, formic acid-N-[(1H-benzimidazol-2-yl)methyl]-2-(morpholin-4-yl)-8-(2,2,2-trifluoroethyl)pyrazolo[1,5-a][1,3,5]triazin-4-amine (1/1)]
DC50 [1]: 3.14 nM | IC50 [2]: 106 nM | IC50 [3]: > 20000 nM

SMILES: Brc1cnn2c(NCc3nnc(-c4ccccc4)[nH]3)nc(N3CCOCC3)nc12 [Example 24, 8-bromo-2-(morpholin-4-yl)-N-[(5-phenyl-4H-1,2,4-triazol-3-yl)methyl]pyrazolo[1,5-a][1,3,5]triazin-4-amine]
DC50 [1]: 1.67 nM | IC50 [2]: 53.3 nM | IC50 [3]: 2320 nM

SMILES: Fc1cccc2[nH]c(CNc3nc(N4CCOCC4)nc4c(C(F)(F)F)cnn34)nc12 [Example 274, N-[(4-fluoro-1H-benzimidazol-2-yl)methyl]-2-(morpholin-4-yl)-8-(trifluoromethyl)pyrazolo[1,5-a][1,3,5]triazin-4-amine]
DC50 [1]: 3.21 nM | IC50 [2]: 6.74 nM | IC50 [3]: > 12900 nM

Continued, values first:

DC50 [1]: 0.407 nM | IC50 [2]: 34.4 nM | IC50 [3]: 12800 nM
SMILES: N[C@@H]1CCN(c2nc(NCc3nc4ccccc4[nH]3)n3ncc(Br)c3n2)C1 [Example 250, 2-[(3R)-3-aminopyrrolidin-1-yl]-N-[(1H-benzimidazol-2-yl)methyl]-8-bromopyrazolo[1,5-a][1,3,5]triazin-4-amine]

DC50 [1]: 1.82 nM | IC50 [2]: 73.2 nM | IC50 [3]: > 20000 nM
SMILES: c1ccc2[nH]c(CNc3nc(N4CCOCC4)nc4c(C5CCC5)cnn34)nc2c1 [Example 263, N-[(1H-benzimidazol-2-yl)methyl]-8-cyclobutyl-2-(morpholin-4-yl)pyrazolo[1,5-a][1,3,5]triazin-4-amine]

DC50 [1]: 0.367 nM | IC50 [2]: 35 nM | IC50 [3]: 7620 nM
SMILES: Brc1cnn2c(NCc3nc4ccccc4[nH]3)nc(N3C[C@H]4CNC[C@H]4C3)nc12 [Example 283, N-[(1H-benzimidazol-2-yl)methyl]-8-bromo-2-[(3aR,6aS)-hexahydropyrrolo[3,4-c]pyrrol-2(1H)-yl]pyrazolo[1,5-a][1,3,5]triazin-4-amine]

DC50 [1]: 0.19 nM | IC50 [2]: 22.5 nM | IC50 [3]: 1790 nM
SMILES: Brc1cnn2c(NCc3nc4ccccc4[nH]3)nc(N3C[C@@H]4C[C@H]3CN4)nc12 [Example 270, N-[(1H-benzimidazol-2-yl)methyl]-8-bromo-2-[(1S,4S)-2,5-diazabicyclo[2.2.1]heptan-2-yl]pyrazolo[1,5-a][1,3,5]triazin-4-amine]
